{"source": "patent EP4389746A2", "about": "“P2X3 RECEPTOR ANTAGONISTS” (Recordati Industria Chimica E Farmaceutica SPA, priority 2022, dated 2024)", "data": [{"target": "T1, human P2X3 receptor (Homo sapiens, UniProt P56373)", "T1 construct": "expressed in transfected cells; host or cells: CHO-K1", "T1 sequence (P56373 1-397)": "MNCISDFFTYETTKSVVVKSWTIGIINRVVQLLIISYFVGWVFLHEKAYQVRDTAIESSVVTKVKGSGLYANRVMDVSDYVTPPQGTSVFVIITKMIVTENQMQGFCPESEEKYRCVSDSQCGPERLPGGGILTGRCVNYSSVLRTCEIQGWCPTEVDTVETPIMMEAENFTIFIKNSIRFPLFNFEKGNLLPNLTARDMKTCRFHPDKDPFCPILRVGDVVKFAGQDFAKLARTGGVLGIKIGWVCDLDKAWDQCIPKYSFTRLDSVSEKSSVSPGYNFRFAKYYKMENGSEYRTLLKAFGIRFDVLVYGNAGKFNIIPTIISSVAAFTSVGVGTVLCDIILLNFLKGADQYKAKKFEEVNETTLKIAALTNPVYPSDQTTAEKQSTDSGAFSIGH", "assay": "Calcium luminescence measurement: human P2X3 receptor activity inhibition (CHO-K1 cells, photoprotein readout, FLEXSTATION)", "type": "cell-based", "conditions": "CHO-K1 cells co-expressing human P2X3 and Ca2+ sensitive photoprotein; agonist α,β-Met-ATP; read-out: h-P2X3 IC50", "protocol": "Determination of human P2X3 receptor activity inhibition\nThe assay for the human purinergic P2RX3 receptor has been adapted to the internal screening instrumentation using the FLEXSTATION as reader and a photoprotein as luminescent readout. The assay consists of CHO-K1 cells recombinantly co-expressing the human P2rx3 receptor and a Ca^2+ sensitive photoprotein. Cells are maintained in DMEM F-12 (1:1) mixture (LONZA cat. n° BE04-687F/U1) supplemented with 9 mL of 100 mM Sodium Pyruvate (LONZA cat. n° BE13-115E), 29 mL of 7.5% Sodium Bicarbonate (LONZA cat. n° BE17-613E), 5.5 mL of 1 M Hepes (LONZA cat. n° BE17-737E), 5 mL of 100X Penicillin/Streptomycin mixture (LONZA cat. n° DE17-602E) and 50 mL of Fetal Bovine Serum (Sigma cat. n° F7524), 1 mg/mL G418 disulfate salt (Sigma cat. n° G8168) and 5 µg/ml Puromycin dihydrochloride (Sigma cat. n° P9620). Standard propagation conditions consist of seeding in a P75 flask twice a week, recovering about 20×10^6 cells, corresponding to about 80% confluency. Cells were seeded into black-walled clear bottom 96 well plates at a density of 40000 cells/well in a complete medium. After 24 h the culture medium was replaced with 200 µL/well of coelenterazine in Tyrode's buffer (Standard Tyrode's buffer: in house solution, 130 mM NaCl, 5 mM KCl, 2 mM CaCl2, 5 mM NaHCO3, 1 mM MgCl2, 20 mM HEPES, pH 7.4). Coelenterazine was purchased from BIOSYNTH (cat. n° C-7001). 10 mM stock solution was prepared in DMSO and glutathione and stored at -20° C. The plates were incubated for 4 hours at 37°C, and injected with 10 µL/well of test compounds at 25X concentration in Tyrode's buffer. After 4 minutes a second injection of 50 µL/well of 5X α,β-Met-ATP in Tyrode's buffer (α,β-Met-ATP: from Tocris (cat. n° 3209), was dissolved at 100 mM in water and stored in aliquots at -20°C) was performed and the signal of the emitted luminescence was recorded by FLEXSTATION III (Molecular Devices). […]\nThe inhibition curves of the tested compounds at cloned P2X3 receptor were determined by nonlinear regression analysis using software Prism 5.0 (Graphpad, San Diego, CA). The IC50 values and pseudo-Hill slope coefficients were estimated by the program.", "units": {"IC50": "µM"}, "values": [{"smiles": "CC(C)C1CN2C(=O)N(Cc3ccc(Cl)cc3)c3cc(NC(CO)CO)cnc3C2=N1", "note": "(stereo not drawn) [Example 15, 6-[(4-Chlorophenyl)methyl]-8-[(1,3-dihydroxypropan-2-yl)amino]-2-(propan-2-yl)-2,6-dihydroimidazo[1,2-c]pyrido[2,3-e]pyrimidin-5(3H)-one]", "IC50": 11.8}, {"smiles": "CC(C)C1CN2C(=O)N(Cc3ccc(Cl)cc3)c3cc(NC4CCOCC4)cnc3C2=N1", "note": "(stereo not drawn) [Example 16, 6-[(4-Chlorophenyl)methyl]-8-[(oxan-4-yl)amino]-2-(propan-2-yl)-2,6-dihydroimidazo[1,2-c]pyrido[2,3-e]pyrimidin-5(3H)-one]", "IC50": 0.872}, {"smiles": "CC(C)C1C(=O)N=C2c3ncc(N4CCC(=O)CC4)cc3N(Cc3ccc(Cl)cc3)C(=O)N21", "note": "(stereo not drawn) [Example 25, 6-[(4-Chlorophenyl)methyl]-8-(4-oxopiperidin-1-yl)-3-(propan-2-yl)imidazo[1,2-c]pyrido[2,3-e]pyrimidine-2,5(3H,6H)-dione]", "IC50": 0.123}, {"smiles": "COc1ccc(Cn2c(=O)n3c(C(C)(C)OC)nnc3c3ncc(N4CCOCC4)cc32)cc1", "note": "[Example 33, 6-(4-Methoxybenzyl)-3-(2-methoxypropan-2-yl)-8-(morpholin-4-yl)pyrido[2,3-e][1,2,4]triazolo[4,3-c]pyrimidin-5(6H)-one]", "IC50": 0.301}, {"smiles": "COc1ccc(Cn2c(=O)n3c(C(C)(C)C)nnc3c3ncc(N4CCC(OC)CC4)cc32)cc1", "note": "[Example 37, 3-tert-Butyl-6-[(4-methoxyphenyl)methyl] -8-(4-methoxypiperidin-1-yl)pyrido[2,3-e][1,2,4]triazolo[4,3-c]pyrimidin-5(6H)-one]", "IC50": 0.339}, {"smiles": "CC(C)c1nnc2c3ncc(N4CCC(=O)CC4)cc3n(Cc3ccc(Cl)cc3)c(=O)n12", "note": "[Example 39, 6-[(4-Chlorophenyl)methyl]-8-(4-oxopiperidin-1-yl)-3-(propan-2-yl)pyrido[2,3-e][1,2,4]triazolo[4,3-c]pyrimidin-5(6H)-one]", "IC50": 1.26}, {"smiles": "COc1ccc(Cn2c(=O)n3c(C(C)(C)C)nnc3c3ncc(N4CCC(N)CC4)cc32)cc1", "note": "[Example 40, 8-(4-Aminopiperidin-1-yl)-3-tert-butyl-6-[(4-methoxyphenyl)methyl]pyrido[2,3-e][1,2,4]triazolo[4,3-c]pyrimidin-5(6H)-one]", "IC50": 0.491}, {"smiles": "COc1cc(Cn2c(=O)n3c(C(C)(C)C)nnc3c3ncc(N4CCOCC4)cc32)ccc1F", "note": "[Example 42, 3-tert-Butyl-6-[(4-fluoro-3-methoxyphenyl)methyl] -8-(morpholin-4-yl)pyrido[2,3-e][1,2,4]triazolo[4,3-c]pyrimidin-5(6H)-one]", "IC50": 1.17}, {"smiles": "COC(C)(C)c1nnc2c3nnc(N4CCN(C(=O)OC(C)(C)C)CC4)cc3n(Cc3ccc(Cl)cc3)c(=O)n12", "note": "[Example 45, tert-Butyl 4-{6-[(4-chlorophenyl)methyl]-3-(2-methoxypropan-2-yl)-5-oxo-5,6-dihydro[1,2,4]triazolo[4',3':1,6]pyrimido[5 ,4-c]pyridazin-8-yl}piperazine-1-carboxylate]", "IC50": 2.55}, {"smiles": "COC(C)(C)c1nnc2c3nnc(N4CCNCC4)cc3n(Cc3ccc(Cl)cc3)c(=O)n12", "note": "[Example 46, 6-[(4-Chlorophenyl)methyl]-3-(2-methoxypropan-2-yl)-8-(piperazin-1-yl)[1,2,4]triazolo[4',3': 1,6]pyrimido[5,4-c]pyridazin-5(6H)-one]", "IC50": 0.322}, {"smiles": "COC(C)(C)c1nnc2c3nnc(N4CCN(C(C)=O)CC4)cc3n(Cc3ccc(Cl)cc3)c(=O)n12", "note": "[Example 47, 8-(4-Acetylpiperazin-1-yl) -6-[(4-chlorophenyl)methyl]-3-(2-methoxypropan-2-yl)[1,2,4]triazolo[4',3': 1,6]pyrimido[5,4-c]pyridazin-5(6H)-one]", "IC50": 0.242}, {"smiles": "CC(C)(C)c1nc2c3ncc(N4CCCC(O)C4)cc3n(Cc3ccc(Cl)cc3)c(=O)n2n1", "note": "(stereo not drawn) [Example 52, 2-tert-Butyl-6-[(4-chlorophenyl)methyl]-8-(3-hydroxypiperidin-1-yl)pyrido[2,3-e][1,2,4]triazolo[1,5-c]pyrimidin-5(6H)-one]", "IC50": 0.215}]}]}
